According to patent publication US12264156B2, “Compounds and pharmaceutical compositions thereof for the treatment of diseases” (GALAPAGOS NV, priority 2018, dated 2025):

Each molecule was assayed on LPS-induced TNFα in monocyte-derived macrophages (MdM) (assay: MdM assay: LPS-triggered TNFα (ELISA)). Conditions: Homo sapiens, Macrophage, 20 h, monocyte-derived macrophages, LPS 200 ng/mL, supernatant after 20 h; read-out: TNFα EC50.
Assay type: cell-based, human
Outline: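 Human monocyte-derived macrophages from CD14+ bead-selected buffy-coat PBMCs, used on day 10, pre-treated with compound for 1 h at 37 °C (0.2% DMSO), then stimulated with 200 ng/mL LPS. Supernatant taken after 20 h for TNFα sandwich ELISA (IL-10 at 2 h).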
With COc1cc(-c2cnc3cc(OCC4CN(C)C4)ccn23)cc(OC(F)F)c1C(=O)NC1CC1 [Cpd 14, N-cyclopropyl-2-(difluoromethoxy)-6-methoxy-4-[7-[(1-methylazetidin-3-yl)methoxy]imidazo[1,2-a]pyridin-3-yl]benzamide] the EC50 was 100 to 1000 nM.
Molecule CCN(CC)CCOc1ccn2c(-c3cc4c(c(OC)c3)C(=O)N(CC(F)(F)F)CC4)cnc2c1 [compound 128, 6-[7-[2-(diethylamino)ethoxy]imidazo[1,2-a]pyridin-3-yl]-8-methoxy-2-(2,2,2-trifluoroethyl)-3,4-dihydroisoquinolin-1-one] has an EC50 of 100 to 1000 nM.
For COc1cc(-c2cnc3cc(OCCN4CCCCC4)ccn23)cc2c1C(=O)N(CC(F)(F)F)CC2 [compound 40, 8-methoxy-6-[7-[2-(1-piperidyl)ethoxy]imidazo [1,2-a]pyridin-3-yl]-2-(2,2,2-trifluoroethyl)-3,4-dihydroisoquinolin-1-one], the EC50 was 100 to 1000 nM.
COc1cc(-c2cnc3cc(OCC4CN(C)CCO4)ccn23)cc2c1C(=O)N(CC(F)(F)F)CC2 (stereo not drawn) [compound 127, 8-methoxy-6-[7-[(4-methylmorpholin-2-yl)methoxy]imidazo[1,2-a]pyridin-3-yl]-2-(2,2,2-trifluoroethyl)-3,4-dihydroisoquinolin-1-one] showed an EC50 of 100 to 1000 nM.
CNc1cc(-c2cnc3cc(OCCN(C)C)ccn23)cc(OC(F)F)c1C(=O)NCC(F)(F)F [Cpd 165, 2-(difluoromethoxy)-4-[7-[2-(dimethylamino)ethoxy]imidazo[1,2-a]pyridin-3-yl]-6-(methylamino)-N-(2,2,2-trifluoroethyl)benzamide] showed an EC50 of 100 to 1000 nM.
In the case of COc1cc(-c2cnc3cc(OC[C@@H]4CN(C)CCO4)ccn23)cc2c1C(=O)N(CC(F)(F)F)CC2 [compound 191, 8-methoxy-6-[7-[[(2S)-4-methylmorpholin-2-yl]methoxy]imidazo [1,2-a]pyridin-3-yl]-2-(2,2,2-trifluoroethyl)-3,4-dihydroisoquinolin-1-one], the EC50 is reported as 100 to 1000 nM.
For COc1cc(-c2cnc3cc(OCC(O)CN4CCOCC4)ccn23)cc(OC(F)F)c1C(=O)NC1CC1 (stereo not drawn) [Cpd 330, N-cyclopropyl-2-(difluoromethoxy)-4-[7-(2-hydroxy-3-morpholino-propoxy)imidazo[1,2-a]pyridin-3-yl]-6-methoxy-benzamide], the EC50 was 0.1 to 100 nM.
COc1cc(-c2cnc3cc(OCCN4CCCC4)ccn23)cc2c1C(=O)N(CC(F)(F)F)CC2 [compound 123, 8-methoxy-6-[7-(2-pyrrolidin-1-ylethoxy)imidazo[1,2-a]pyridin-3-yl]-2-(2,2,2-trifluoroethyl)-3,4-dihydroisoquinolin-1-one] gave an EC50 of 100 to 1000 nM.
Molecule COc1cc(-c2cnc3cc(OC[C@H]4COCCO4)ccn23)cc2c1C(=O)N(CC(F)(F)F)CC2 [Cpd 86, 6-[7-[[(2R)-1,4-dioxan-2-yl]methoxy]imidazo[1,2-a]pyridin-3-yl]-8-methoxy-2-(2,2,2-trifluoroethyl)-3,4-dihydroisoquinolin-1-one] has an EC50 of 100 to 1000 nM.
For COc1cc(-c2cnc3cc(OC(C)C(F)(F)F)ccn23)cc(OC(F)F)c1C(=O)NC1CC1 (stereo not drawn) [compound 45, N-cyclopropyl-2-(difluoromethoxy)-6-methoxy-4-[7-(2,2,2-trifluoro-1-methyl-ethoxy)imidazo[1,2-a]pyridin-3-yl]benzamide], the EC50 was 100 to 1000 nM.
COc1cc(-c2cnc3cc(OC[C@H]4CN(C)CCO4)ccn23)cc2c1C(=O)N(CC(F)(F)F)CC2 [compound 190, 8-methoxy-6-[7-[[(2R)-4-methylmorpholin-2-yl]methoxy]imidazo[1,2-a]pyridin-3-yl]-2-(2,2,2-trifluoroethyl)-3,4-dihydro isoquinolin-1-one] was tested, and the EC50 was 100 to 1000 nM.
With COc1cc(-c2cnc3cc(OCCCN4CC5(COC5)C4)ccn23)cc(OC(F)F)c1C(=O)NC1CC1 [compound 273, N-cyclopropyl-2-(difluoromethoxy)-6-methoxy-4-[7-[3-(2-oxa-6-azaspiro[3.3]heptan-6-yl)propoxy]imidazo[1,2-a]pyridin-3-yl]benzamide] the EC50 was 100 to 1000 nM.
In the case of COc1cc(-c2cnc3cc(OCCCN4CCC4)ccn23)cc(OC(F)F)c1C(=O)NC1CC1 [compound 274, 4-[7-[3-(azetidin-1-yl)propoxy]imidazo[1,2-a]pyridin-3-yl]-N-cyclopropyl-2-(difluoromethoxy)-6-methoxy-benzamide], the EC50 is reported as 100 to 1000 nM.
COc1cc(-c2cnc3cc(OCCN(C)C)ccn23)cc2c1C(=O)N(CC(F)(F)F)CC2 [Cpd 18, 6-[7-[2-(dimethylamino)ethoxy]imidazo[1,2-a]pyridin-3-yl]-8-methoxy-2-(2,2,2-trifluoroethyl)-3,4-dihydroisoquinolin-1-one] was tested, and the EC50 was 100 to 1000 nM.
COc1cc(-c2cnc3cc(OCCC4CCCN4C)ccn23)cc(OC(F)F)c1C(=O)NC1CC1 (stereo not drawn) [compound 17, N-cyclopropyl-2-(difluoromethoxy)-6-methoxy-4-[7-[2-(1-methylpyrrolidin-2-yl)ethoxy]imidazo[1,2-a]pyridin-3-yl]benzamide] showed an EC50 of 0.1 to 100 nM.
Molecule COc1cc(-c2cnc3cc(OCCN4CCCCC4)ccn23)cc(OC(F)F)c1C(=O)NC1CC1 [compound 10, N-cyclopropyl-2-(difluoromethoxy)-6-methoxy-4-[7-[2-(1-piperidyl)ethoxy]imidazo [1,2-a]pyridin-3-yl]benzamide] has an EC50 of 0.1 to 100 nM.
In the case of COc1cc(-c2cnc3cc(OCC4(F)CN(C(=O)OC(C)(C)C)C4)ccn23)cc2c1C(=O)N(CC(F)(F)F)CC2 [compound 248, tert-butyl 3-fluoro-3-[[3-[8-methoxy-1-oxo-2-(2,2,2-trifluoroethyl)-3,4-dihydroisoquinolin-6-yl]imidazo[1,2-a]pyridin-7-yl]oxymethyl]azetidine-1-carboxylate], the EC50 is reported as 100 to 1000 nM.
With COc1cc(-c2cnc3cc(OCC4(F)CN(C)C4)ccn23)cc2c1C(=O)N(CC(F)(F)F)CC2 [compound 252, 6-[7-[(3-fluoro-1-methyl-azetidin-3-yl)methoxy]imidazo[1,2-a]pyridin-3-yl]-8-methoxy-2-(2,2,2-trifluoroethyl)-3,4-dihydro isoquinolin-1-one] the EC50 was 100 to 1000 nM.
For COc1cc(-c2cnc3cc(OCc4ccnn4C)ccn23)cc(OC(F)F)c1C(=O)NC1CC1 [compound 44, N-cyclopropyl-2-(difluoromethoxy)-6-methoxy-4-[7-[(2-methylpyrazol-3-yl)methoxy]imidazo[1,2-a]pyridin-3-yl] benzamide], the EC50 was 100 to 1000 nM.
COc1cc(-c2cnc3cc(OCCC4CCCN4C)ccn23)cc2c1C(=O)N(CC(F)(F)F)CC2 (stereo not drawn) [Cpd 122, 8-methoxy-6-[7-[2-(1-methylpyrrolidin-2-yl)ethoxy]imidazo[1,2-a]pyridin-3-yl]-2-(2,2,2-trifluoroethyl)-3,4-dihydroisoquinolin-1-one] was tested, and the EC50 was 100 to 1000 nM.
Molecule COc1cc(-c2cnc3cc(OCCCN4CCC5(CC4)CNC(=O)O5)ccn23)cc(OC(F)F)c1C(=O)NC1CC1 [Cpd 324, N-cyclopropyl-2-(difluoromethoxy)-6-methoxy-4-[7-[3-(2-oxo-1-oxa-3,8-diazaspiro[4.5]decan-8-yl)propoxy]imidazo[1,2-a]pyridin-3-yl]benzamide] has an EC50 of 100 to 1000 nM.
In the case of COc1cc(-c2cnc3cc(OCCCN4CCCC4)ccn23)cc(OC(F)F)c1C(=O)NC1CC1 [compound 275, N-cyclopropyl-2-(difluoromethoxy)-6-methoxy-4-[7-(3-pyrrolidin-1-ylpropoxy)imidazo[1,2-a]pyridin-3-yl]benzamide], the EC50 is reported as 100 to 1000 nM.
CCN(CC)CCOc1ccn2c(-c3cc(OC)c(C(=O)NC4CC4)c(OC(F)F)c3)cnc2c1 [compound 107, N-cyclopropyl-4-[7-[2-(diethylamino)ethoxy]imidazo[1,2-a]pyridin-3-yl]-2-(difluoromethoxy)-6-methoxy-benzamide] showed an EC50 of 100 to 1000 nM.
COc1cc(-c2cnc3cc(OC[C@H]4COCCO4)ccn23)cc2c1C(=O)NCC2 [compound 242, 6-[7-[[(2R)-1,4-dioxan-2-yl]methoxy]imidazo[1,2-a]pyridin-3-yl]-8-methoxy-3,4-dihydro-2H-isoquinolin-1-one] showed an EC50 of 100 to 1000 nM.
For COc1cc(-c2cnc3cc(OCCN4CC(F)(F)C4)ccn23)cc2c1C(=O)N(CC(F)(F)F)CC2 [Cpd 244, 6-[7-[2-(3,3-difluoroazetidin-1-yl)ethoxy]imidazo[1,2-a]pyridin-3-yl]-8-methoxy-2-(2,2,2-trifluoroethyl)-3,4-dihydroisoquinolin-1-one], the EC50 was 100 to 1000 nM.
With COc1cc(-c2cnc3cc(OCCCN4CC(O)C4)ccn23)cc(OC(F)F)c1C(=O)NC1CC1 [Cpd 286, N-cyclopropyl-2-(difluoromethoxy)-4-[7-[3-(3-hydroxyazetidin-1-yl)propoxy]imidazo[1,2-a]pyridin-3-yl]-6-methoxy-benzamide] the EC50 was 1000 to 5000 nM.
In the case of COc1cc(-c2cnc3cc(OC[C@@H]4COCCO4)ccn23)cc2c1C(=O)N(CC(F)(F)F)CC2 [compound 225, 6-[7-[[(2S)-1,4-dioxan-2-yl]methoxy]imidazo[1,2-a]pyridin-3-yl]-8-methoxy-2-(2,2,2-trifluoroethyl)-3,4-dihydroisoquinolin-1-one], the EC50 is reported as 100 to 1000 nM.
For COc1cc(-c2cnc3cc(OCC(O)CN4CCCCC4)ccn23)cc(OC(F)F)c1C(=O)NC1CC1 (stereo not drawn) [Cpd 321, N-cyclopropyl-2-(difluoromethoxy)-4-[7-[2-hydroxy-3-(1-piperidyl)propoxy]imidazo [1,2-a]pyridin-3-yl]-6-methoxy-benzamide], the EC50 was 0.1 to 100 nM.

Same assay, conditions: Homo sapiens, Macrophage, 20 h, read-out: TNFα EC50 (nM)
Work on COc1cc(-c2cnc3cc(OCCN4C5CCC4COC5)ccn23)cc(OC(F)F)c1C(=O)NC1CC1 [compound 193, N-cyclopropyl-2-(difluoromethoxy)-6-methoxy-4-[7-[2-(3-oxa-8-azabicyclo [3.2.1]octan-8-yl)ethoxy]imidazo[1,2-a]pyridin-3-yl]benzamide] yielded an EC50 of 100 to 1000 nM.

Same assay, conditions: monocyte-derived macrophages, LPS 200 ng/mL, supernatant after 20 h; read-out: TNFα EC50
COc1cc(-c2cnc3cc(OCC(O)CN4CCOCC4)ccn23)cc(OC(F)F)c1C(=O)NC1CC1 (single isomer, unassigned) [Cpd 386, N-cyclopropyl-2-(difluoromethoxy)-4-[7-(2-hydroxy-3-morpholino-propoxy)imidazo[1,2-a]pyridin-3-yl]-6-methoxy-benzamide] showed an EC50 of 100 to 1000 nM.
